The values below come from patent publication US20090274738A1, “IMPLANTABLE DEVICES FOR PROMOTING REENDOTHELIALIZATION AND METHODS OF USE THEREOF” (priority 2008, published 2009).

In data set [1] the test system is endothelial progenitor cell. The note with it: cited from earlier work.
The nature of data set [2]: Tissue uptake of estradiol administered locally with a catheter. The note with it: 10 mg administered with a catheter over a few seconds. In kind it is in vivo. On the procedure: Stents and hormone used for the procedures The polymer poly (ester-amide) (PEA)/estradiol (E2) stents used in Examples presented herein were prepared by MicroPort (MicroPort Medical Co, Ltd. Shanghai). Stainless steel bare metal stents were of 18 mm and 23 mm length and were spray coated by MicroPort with 300 μg or 500 μg of E2 matrixed with MediVas™ poly (ester-amide) (MVPEA.I.(Ac)) tempo polymer. […] The sizes of Cypher™ stents were; 3×18 mm, 3.5×18 mm, 3×23 mm, 3.5×23 mm (Johnson & Johnson). The sizes of Taxus™ stents were 2.25×12 mm, 3×16 mm, 3.5×16 mm, 3×24 mm, 3.5×24 mm (Boston Scientific). The estradiol (USP) used to load the polymer poly (ester-amide) (PEA)/E2 stents was bought from Xenex labs (Coquitlam, Canada) and send to Microport. The estradiol used for local delivery by catheter in the objective 2 was the water soluble form coupled with hydroxypropyl-heta-cyclodextrin (HPCD).

Data set [3] relates to foetal bovine aortic endothelial cell. To be noted: cited from earlier work.
Data set [4] is classed as in vivo. On the procedure:
Tissue samples and stents were analyzed for each animal for estrogen content. The right coronary artery (RCA) and the left anterior descending artery (LAD) were opened longitudinally and cut into 6 pieces; 2 in the proximal region, 2 in the medial region and 2 in the distal region of the stented segment. One piece in each region was analyzed and the other one was kept as a backup. To evaluate the migration of E2 through the arterial wall, the left circumflex artery (LCX) was dissected to separate the adventitia from the rest of the artery and the two fractions were analyzed individually. […] After centrifugation, sera were collected for extraction and analysis by GC/MS.
Hormones Deuterium-labeled estradiol 2,4,16,16,17-D5 (17β-D5) (CDN Isotopes, Pointe Claire, Canada) and micronized estradiol (USP, Xenex labs, Coquitlam, Canada) were used respectively as internal and external controls.
Extraction of steroids—17β-estradiol extraction in pig serum. Blood samples of 8.5 mL were collected at specific time from each animal in the coronary sinus using an 8 French guiding catheter at baseline, 10 min and 1 hr after stent implantation and at sacrifice. Samples were centrifuged at 1800 rpm at 4° C. for 10 minutes. […]
Estrogen quantification data Estrogen quantification was performed by Gas Chromatography/Mass Spectroscopy (GC/MS) as described above. Diffusion of E2 from the stent was determined in tissue in direct contact with the stent (coronary tissues proximal, medial, distal (see FIG. 9)), in close proximity (reference proximal, reference distal, adventitia, peri-coronary muscle, peri-coronary white fat (see FIG. 10)) or at distal sites potentially exposed to E2 released from the stent into the blood (carotid artery, femoral artery, apex, auricle, lung, kidney and liver). To obtain the total amount of E2 in an artery, E2 content measured by GC/MS in the proximal, medial and distal portions of each stented coronary segment were added together. […] The E2 content of the total adventitia dissected from each RCA was also determined.

Some results are limits rather than exact numbers.

On to `C[C@]12CC[C@@H]3c4ccc(O)cc4CC[C@H]3[C@@H]1CC[C@@H]2O` [estradiol, 17-β-Estradiol], for which the “concentration with strong negative effect on endothelial progenitor cell growth” value in data set [1] is not below 10 µM. Moreover, in data set [2], the “amount in the tissue overall” value turned out to be 51 µg and the “fraction of dose up-taken by the tissue” value is 0.51%. Further, in data set [3], the “concentration at which enhancement of foetal bovine aortic endothelial cell growth was lost” value is on record as not below 100 nM. In addition, the “penetration of estradiol through the arterial wall” value in data set [4] (detected in adventitia, peri-coronary muscle and white fat tissues) is recorded as “deep penetration”. Further, the “mean concentration of estradiol in coronary tissue” value in data set [4] (first 48 hours, 500 μg E2 stent) is 12.0 μg/g of tissue. In data set [4] (in vivo), the “E2 concentration in tissues at distal location from stent” value was “at baseline level”.
